ChEMBL document CHEMBL3044683, “Antifeedant activities of tutin and 7-hydroxycoumarin acylation derivatives against Mythimna separata” (2012)

Experiments:
Mythimna separata [1] = test: Antifeedant activity against third-instar larvae of Mythimna separata (Oriental armyworm) at 2 mg/ml applied on wheat leaf after 48 hr by non-choice leaf disk method relative to control; assay type: functional
Mythimna separata [2] = test: Antifeedant activity against third-instar larvae of Mythimna separata (Oriental armyworm) at 2 mg/ml applied on wheat leaf after 24 hr by non-choice leaf disk method relative to control; assay type: functional

| SMILES | AFI (Mythimna separata [1]) [%] | AFI (Mythimna separata [2]) [%] |
| --- | --- | --- |
| O=C(Oc1ccc2ccc(=O)oc2c1)c1ccc(Cl)cc1Cl [7-(2,4-DICHLOROBENZOYLOXY)COUMARIN] | 18.3 | 6.3 |
| O=C(Oc1ccc2ccc(=O)oc2c1)c1cc([N+](=O)[O-])cc([N+](=O)[O-])c1 [7-(3,5-DINITROBENZOYLOXY)COUMARIN] | 49.1 | 46.7 |
| O=C(Oc1ccc2ccc(=O)oc2c1)c1ccc(Cl)cc1 [7-(4-CHLOROBENZOYLOXY)COUMARIN] | 17.5 | 9.2 |
| COc1ccc(C(=O)Oc2ccc3ccc(=O)oc3c2)cc1 [7-(4-METHOXYBENZOYLOXY)COUMARIN] | 35.4 | 32.3 |
| O=C(Oc1ccc2ccc(=O)oc2c1)c1ccc([N+](=O)[O-])cc1 [7-(4-NITROBENZOYLOXY)COUMARIN] | 10.8 | -7.5 |
| O=C(Oc1ccc2ccc(=O)oc2c1)c1ccc(Cl)nc1 [7-(6-CHLORONICOTINOYLOXY)COUMARIN] | 37.9 | 45.3 |
| CS(=O)(=O)Oc1ccc2ccc(=O)oc2c1 [7-METHANESULFONYLOXYCOUMARIN] | 53.7 | 62.4 |
| C=C1CC[C@@H]2[C@](C)(CO)[C@H](O)CC[C@@]2(C)[C@@H]1C/C=C1/C(=O)OC[C@H]1O [ANDROGRAPHOLIDE] | 9.6 | 26.7 |
| C/C=C(\C)C(=O)O[C@H]1C[C@@H](OC(C)=O)[C@@]2(C(=O)OC)CO[C@H]3[C@@H](O)[C@@](C)([C@]45O[C@@]4(C)[C@@H]4C[C@H]5O[C@@H]5OC=C[C@@]54O)[C@H]4[C@]1(CO[C@]4(O)C(=O)OC)[C@@H]32 [AZADIRACHTIN A] | 43.8 | 37.3 |
| C=C(C)[C@H]1[C@H]2OC(=O)[C@@H]1[C@@]1(O)[C@H]3O[C@H]3[C@]3(CO3)[C@]1(C)[C@@H]2O [TUTIN] | 31.8 | 22.7 |
| O=c1ccc2ccc(O)cc2o1 [UMBELLIFERONE] | 17.3 | 25.4 |
